Test results from paper PMC6407917, “Identification of GSK3186899/DDD853651 as a Preclinical Development Candidate for the Treatment of Visceral Leishmaniasis” (Journal of Medicinal Chemistry, 2018).

How the values were obtained:
Assay in all cases: biochemical
Parameters in all cases: species or system HEK293/K-562/placenta mixed human extract; Kinobeads chemoproteomic competition binding, quantified by TMT LC-MS/MS, dose response up to 20 uM
RB1CC1 = RB1CC1 (Homo sapiens, UniProt Q8TDY2)
TTK = TTK (Homo sapiens, UniProt P33981)
Sequence of TTK (P33981 whole entry): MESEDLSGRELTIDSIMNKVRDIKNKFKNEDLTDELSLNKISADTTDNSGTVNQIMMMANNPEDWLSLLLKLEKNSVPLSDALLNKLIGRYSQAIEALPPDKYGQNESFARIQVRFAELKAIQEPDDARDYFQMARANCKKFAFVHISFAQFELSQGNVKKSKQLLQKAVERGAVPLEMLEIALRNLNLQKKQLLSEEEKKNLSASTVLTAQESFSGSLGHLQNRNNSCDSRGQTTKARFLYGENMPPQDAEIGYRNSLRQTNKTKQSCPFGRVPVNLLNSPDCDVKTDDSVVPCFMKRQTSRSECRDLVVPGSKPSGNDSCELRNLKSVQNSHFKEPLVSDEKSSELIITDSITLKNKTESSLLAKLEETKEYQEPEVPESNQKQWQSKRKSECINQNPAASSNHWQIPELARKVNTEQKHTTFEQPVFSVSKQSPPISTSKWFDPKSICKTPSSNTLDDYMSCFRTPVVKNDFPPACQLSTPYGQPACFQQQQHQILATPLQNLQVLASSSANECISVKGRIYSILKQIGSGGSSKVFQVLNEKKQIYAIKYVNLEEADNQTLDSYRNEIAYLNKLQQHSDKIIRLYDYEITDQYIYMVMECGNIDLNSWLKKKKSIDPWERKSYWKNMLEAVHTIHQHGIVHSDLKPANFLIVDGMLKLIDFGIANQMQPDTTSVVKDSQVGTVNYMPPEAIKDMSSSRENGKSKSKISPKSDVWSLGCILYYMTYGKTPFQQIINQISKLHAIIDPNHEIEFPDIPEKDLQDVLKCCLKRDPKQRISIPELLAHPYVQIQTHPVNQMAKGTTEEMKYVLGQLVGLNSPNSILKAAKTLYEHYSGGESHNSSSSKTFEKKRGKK

PLK4 = PLK4 (Homo sapiens, UniProt O00444)
YWHAG = YWHAG (Homo sapiens, UniProt P61981)
STRADA = STRADA (Homo sapiens, UniProt Q7RTN6)
Sequence of STRADA (Q7RTN6 whole entry): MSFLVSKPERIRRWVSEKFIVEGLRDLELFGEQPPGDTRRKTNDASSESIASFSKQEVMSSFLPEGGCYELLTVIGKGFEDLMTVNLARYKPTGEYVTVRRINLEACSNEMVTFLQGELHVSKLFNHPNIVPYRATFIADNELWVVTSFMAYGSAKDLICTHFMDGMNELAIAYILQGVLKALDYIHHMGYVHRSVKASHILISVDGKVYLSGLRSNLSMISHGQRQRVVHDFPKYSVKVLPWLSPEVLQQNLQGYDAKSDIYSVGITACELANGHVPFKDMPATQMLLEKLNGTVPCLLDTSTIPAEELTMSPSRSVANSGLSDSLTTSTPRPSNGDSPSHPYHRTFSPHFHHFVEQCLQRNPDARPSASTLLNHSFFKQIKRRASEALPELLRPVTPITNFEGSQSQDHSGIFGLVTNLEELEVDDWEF

MAP4K1 = MAP4K1 (Homo sapiens, UniProt Q92918)
Sequence of MAP4K1 (Q92918 whole entry): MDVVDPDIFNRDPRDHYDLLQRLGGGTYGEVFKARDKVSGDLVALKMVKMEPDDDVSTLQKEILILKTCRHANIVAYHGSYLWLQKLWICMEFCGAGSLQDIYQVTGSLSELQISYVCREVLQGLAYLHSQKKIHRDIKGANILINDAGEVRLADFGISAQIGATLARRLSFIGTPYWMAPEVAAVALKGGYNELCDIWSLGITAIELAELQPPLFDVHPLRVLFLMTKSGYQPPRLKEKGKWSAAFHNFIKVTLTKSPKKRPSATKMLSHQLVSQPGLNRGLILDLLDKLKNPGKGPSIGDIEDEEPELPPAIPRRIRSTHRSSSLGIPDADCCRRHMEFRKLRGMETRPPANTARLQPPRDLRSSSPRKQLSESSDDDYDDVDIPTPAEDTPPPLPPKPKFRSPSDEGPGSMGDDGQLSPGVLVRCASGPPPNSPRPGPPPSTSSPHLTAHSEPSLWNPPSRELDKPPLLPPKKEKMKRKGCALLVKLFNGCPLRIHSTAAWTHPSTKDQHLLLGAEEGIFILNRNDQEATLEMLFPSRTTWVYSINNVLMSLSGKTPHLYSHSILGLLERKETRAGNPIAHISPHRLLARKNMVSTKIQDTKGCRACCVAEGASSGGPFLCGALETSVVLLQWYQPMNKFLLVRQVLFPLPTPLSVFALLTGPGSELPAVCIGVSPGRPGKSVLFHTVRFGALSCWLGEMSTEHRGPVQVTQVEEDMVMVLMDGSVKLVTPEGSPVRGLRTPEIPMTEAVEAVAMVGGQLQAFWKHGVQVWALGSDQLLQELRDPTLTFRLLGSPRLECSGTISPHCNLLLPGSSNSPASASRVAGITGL

NUAK2 = NUAK2 (Homo sapiens, UniProt Q9H093)
MAPK8 = MAPK8 (Homo sapiens, UniProt P45983)
Sequence of MAPK8 (P45983 whole entry): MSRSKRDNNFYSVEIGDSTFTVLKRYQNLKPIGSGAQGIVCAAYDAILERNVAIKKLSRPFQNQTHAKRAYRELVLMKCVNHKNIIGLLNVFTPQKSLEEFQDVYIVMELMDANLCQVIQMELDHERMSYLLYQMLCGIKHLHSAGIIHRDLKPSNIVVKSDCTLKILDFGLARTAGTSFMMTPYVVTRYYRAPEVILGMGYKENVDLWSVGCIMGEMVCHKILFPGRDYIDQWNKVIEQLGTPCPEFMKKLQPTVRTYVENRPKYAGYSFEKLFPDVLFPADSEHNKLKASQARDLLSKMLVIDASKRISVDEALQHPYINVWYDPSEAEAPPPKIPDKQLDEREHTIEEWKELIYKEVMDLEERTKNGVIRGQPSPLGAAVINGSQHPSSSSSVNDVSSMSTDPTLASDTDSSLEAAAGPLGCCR

RIOK2 = RIOK2 (Homo sapiens, UniProt Q9BVS4)
Sequence of RIOK2 (Q9BVS4 whole entry): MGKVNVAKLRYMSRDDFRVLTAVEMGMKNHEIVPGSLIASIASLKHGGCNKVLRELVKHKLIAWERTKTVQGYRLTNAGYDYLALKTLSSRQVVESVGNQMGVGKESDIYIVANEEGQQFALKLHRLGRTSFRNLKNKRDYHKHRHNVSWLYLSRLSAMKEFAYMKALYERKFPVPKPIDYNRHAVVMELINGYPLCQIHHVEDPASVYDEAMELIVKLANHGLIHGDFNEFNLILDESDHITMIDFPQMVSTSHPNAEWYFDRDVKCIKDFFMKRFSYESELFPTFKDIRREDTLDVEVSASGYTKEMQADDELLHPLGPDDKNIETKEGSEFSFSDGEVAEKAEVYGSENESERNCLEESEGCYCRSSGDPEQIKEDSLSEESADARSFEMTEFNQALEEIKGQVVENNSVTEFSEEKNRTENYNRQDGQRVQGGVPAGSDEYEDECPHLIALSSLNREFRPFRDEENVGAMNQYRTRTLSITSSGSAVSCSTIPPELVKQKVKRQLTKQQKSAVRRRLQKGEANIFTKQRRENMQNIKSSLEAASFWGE

TNK2 = TNK2 (Homo sapiens, UniProt Q07912)
Sequence of TNK2 (Q07912 whole entry): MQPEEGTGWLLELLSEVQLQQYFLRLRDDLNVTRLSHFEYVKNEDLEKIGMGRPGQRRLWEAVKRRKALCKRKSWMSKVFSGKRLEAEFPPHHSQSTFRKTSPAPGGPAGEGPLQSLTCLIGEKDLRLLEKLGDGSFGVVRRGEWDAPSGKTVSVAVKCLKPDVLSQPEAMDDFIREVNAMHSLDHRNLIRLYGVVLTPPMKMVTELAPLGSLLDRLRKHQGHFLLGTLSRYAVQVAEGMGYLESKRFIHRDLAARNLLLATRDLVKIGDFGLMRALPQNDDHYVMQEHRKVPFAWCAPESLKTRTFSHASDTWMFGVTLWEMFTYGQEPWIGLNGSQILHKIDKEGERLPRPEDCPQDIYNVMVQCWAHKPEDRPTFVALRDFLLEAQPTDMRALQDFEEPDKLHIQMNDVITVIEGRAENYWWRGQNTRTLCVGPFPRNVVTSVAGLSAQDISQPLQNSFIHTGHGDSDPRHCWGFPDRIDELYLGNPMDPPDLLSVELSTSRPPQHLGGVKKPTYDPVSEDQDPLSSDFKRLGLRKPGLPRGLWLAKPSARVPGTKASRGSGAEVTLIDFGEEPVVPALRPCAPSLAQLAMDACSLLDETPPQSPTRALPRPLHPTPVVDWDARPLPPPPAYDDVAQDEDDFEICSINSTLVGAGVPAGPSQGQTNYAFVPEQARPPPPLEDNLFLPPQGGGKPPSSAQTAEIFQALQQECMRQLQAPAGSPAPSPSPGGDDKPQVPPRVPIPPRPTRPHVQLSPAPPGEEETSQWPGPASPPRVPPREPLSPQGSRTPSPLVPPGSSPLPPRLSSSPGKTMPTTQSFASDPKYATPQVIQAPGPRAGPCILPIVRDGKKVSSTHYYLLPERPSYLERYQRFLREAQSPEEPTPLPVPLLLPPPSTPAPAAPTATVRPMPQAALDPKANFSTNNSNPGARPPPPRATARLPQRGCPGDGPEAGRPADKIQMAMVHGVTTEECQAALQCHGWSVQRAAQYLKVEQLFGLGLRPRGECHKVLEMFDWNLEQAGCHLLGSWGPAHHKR

PRKD3 = PRKD3 (Homo sapiens, UniProt O94806)
PRKAA2 = PRKAA2 (Homo sapiens, UniProt P54646)
STK17A = STK17A (Homo sapiens, UniProt Q9UEE5)
Sequence of STK17A (Q9UEE5 whole entry): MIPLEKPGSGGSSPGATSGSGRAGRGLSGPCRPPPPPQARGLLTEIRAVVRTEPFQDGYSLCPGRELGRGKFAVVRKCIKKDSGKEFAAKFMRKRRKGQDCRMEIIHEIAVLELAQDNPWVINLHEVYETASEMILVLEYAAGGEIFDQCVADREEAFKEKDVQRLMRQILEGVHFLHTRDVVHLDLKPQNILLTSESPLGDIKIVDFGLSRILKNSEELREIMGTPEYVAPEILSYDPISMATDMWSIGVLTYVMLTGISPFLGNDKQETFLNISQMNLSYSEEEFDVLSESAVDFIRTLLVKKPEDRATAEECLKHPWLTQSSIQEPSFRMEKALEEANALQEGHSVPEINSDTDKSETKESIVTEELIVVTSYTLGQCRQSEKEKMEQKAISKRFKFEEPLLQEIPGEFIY

mTOR = mTOR (Homo sapiens, UniProt P42345)
EPHA5 = EPHA5 (Homo sapiens, UniProt P54756)
EPHA1 = EPHA1 (Homo sapiens, UniProt P21709)
ROCK2 = ROCK2 (Homo sapiens, UniProt O75116)
PIK3R4 = PIK3R4 (Homo sapiens, UniProt Q99570)
TGFBR1 = TGFBR1 (Homo sapiens, UniProt P36897)
CAMK1 = CAMK1 (Homo sapiens, UniProt Q14012)
MKNK2 = MKNK2 (Homo sapiens, UniProt Q9HBH9)
Sequence of MKNK2 (Q9HBH9 whole entry): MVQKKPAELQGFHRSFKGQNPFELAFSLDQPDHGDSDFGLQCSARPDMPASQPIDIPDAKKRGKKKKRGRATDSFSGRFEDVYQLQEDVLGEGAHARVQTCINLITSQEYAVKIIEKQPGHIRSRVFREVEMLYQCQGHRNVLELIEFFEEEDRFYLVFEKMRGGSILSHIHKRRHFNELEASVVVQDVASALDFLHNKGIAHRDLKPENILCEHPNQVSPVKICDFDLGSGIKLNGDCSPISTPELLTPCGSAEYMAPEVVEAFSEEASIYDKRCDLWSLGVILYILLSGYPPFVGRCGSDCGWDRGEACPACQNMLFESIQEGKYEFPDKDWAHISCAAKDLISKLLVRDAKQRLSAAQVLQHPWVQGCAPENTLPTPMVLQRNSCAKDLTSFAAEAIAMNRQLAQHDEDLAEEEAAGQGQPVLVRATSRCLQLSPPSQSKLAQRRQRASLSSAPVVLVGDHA

Measured: IC50

COc1nc(N[C@H]2CC[C@H](NS(=O)(=O)CC(C)C)CC2)nc2[nH]nc(N3CCOC[C@H]3C)c12 [compound 39, N-(trans-4-((4-Methoxy-3-((R)-3-methylmorpholino)-1H-pyrazolo[3,4-d]pyrimidin-6-yl)amino)cyclohexyl)-2-methylpropane-1-sulfonamide]
≥ 20 µM: all assays above
